Reference: patent publication US10696615B2, “Prenylated hydroxystilbenes” (The University of Sydney, priority 2011, dated 2020)

How the values were obtained:
Type in all cases: cell-based, human
[1] = test system: UACC-62; assay: NCI in vitro cancer screen, Melanoma; conditions: UACC-62
[2] = test system: PC-3; assay: NCI in vitro cancer screen, Prostate Cancer; conditions: PC-3
[3] = test system: SF-295; assay: NCI in vitro cancer screen, CNS Cancer; conditions: SF-295
[4] = test system: MOLT-4; assay: NCI in vitro cancer screen, Leukemia; conditions: MOLT-4
[5] = test system: A549/ATCC; assay: NCI in vitro cancer screen, Non-Small Cell Lung Cancer
[6] = test system: SN12C; assay: NCI in vitro cancer screen, Renal Cancer
[7] = test system: ADR-RES (NCI/ADR-RES); assay: NCI in vitro cancer screen, Ovarian Cancer
[8] = test system: MDA-MB-231 (MDA-MB-231/ATCC); assay: NCI in vitro cancer screen, Breast Cancer; conditions: MDA-MB-231
[9] = test system: SR; assay: NCI in vitro cancer screen, Leukemia
[10] = test system: RPMI-8226; assay: NCI in vitro cancer screen, Leukemia; conditions: RPMI-8226
[11] = test system: RXF-393; assay: NCI in vitro cancer screen, Renal Cancer; conditions: RXF-393
[12] = test system: SNB-75; assay: NCI in vitro cancer screen, CNS Cancer; conditions: SNB-75
[13] = test system: NCI-H460; assay: NCI in vitro cancer screen, Non-Small Cell Lung Cancer; conditions: NCI-H460
[14] = test system: M14; assay: NCI in vitro cancer screen, Melanoma; conditions: M14
[15] = test system: NCI-H322M; assay: NCI in vitro cancer screen, Non-Small Cell Lung Cancer
[16] = test system: HCT-15; assay: NCI in vitro cancer screen, Colon Cancer; conditions: HCT-15
[17] = test system: T-47D; assay: NCI in vitro cancer screen, Breast Cancer
[18] = test system: MALME-3M; assay: NCI in vitro cancer screen, Melanoma
[19] = test system: 786-0; assay: NCI in vitro cancer screen, Renal Cancer; conditions: 786-0
[20] = test system: HCC-2998; assay: NCI in vitro cancer screen, Colon Cancer; conditions: HCC-2998
[21] = test system: NCI-H522; assay: NCI in vitro cancer screen, Non-Small Cell Lung Cancer; conditions: NCI-H522
[22] = test system: HL-60 (TB); assay: NCI in vitro cancer screen, Leukemia; conditions: HL-60 (TB)
[23] = test system: UO-31; assay: NCI in vitro cancer screen, Renal Cancer; conditions: UO-31
[24] = test system: ACHN; assay: NCI in vitro cancer screen, Renal Cancer
[25] = test system: MDA-MB-435; assay: NCI in vitro cancer screen, Melanoma; conditions: MDA-MB-435
[26] = test system: A498; assay: NCI in vitro cancer screen, Renal Cancer; conditions: A498
[27] = test system: COLO 205; assay: NCI in vitro cancer screen, Colon Cancer; conditions: COLO 205
[28] = test system: SK-MEL-2; assay: NCI in vitro cancer screen, Melanoma; conditions: SK-MEL-2
[29] = test system: SK-OV-3; assay: NCI in vitro cancer screen, Ovarian Cancer; conditions: SK-OV-3
[30] = test system: K-562; assay: NCI in vitro cancer screen, Leukemia; conditions: K-562
[31] = test system: LOX IMVI; assay: NCI in vitro cancer screen, Melanoma
[32] = Homo sapiens, read-out: LC50 (the source's name)

CC(C)=CCOc1cc(O)cc(/C=C/c2ccc(O)c(O)c2)c1 [USYDS4, (E)-3-(3-methyl-2-butenyloxy)-3′,4′,5-trihydroxystilbene]
GI50 ([1]; Homo sapiens): 4.53 µM
CC50 [1, 32]: 44.4 µM
TGI [1]: 16.8 µM
GI50 ([2]; Homo sapiens): 4.47 µM
CC50 [2, 32]: 87.9 µM
TGI [2]: 22.0 µM
GI50 ([3]; Homo sapiens): 7.29 µM
CC50 [3, 32]: 70.9 µM
TGI [3]: 24.3 µM
GI50 ([4]; Homo sapiens): 4.31 µM
CC50 [4, 32]: > 100 µM
TGI [4]: 21.6 µM
TGI [5]: 25.6 µM
GI50 ([5]; Homo sapiens): 4.74 µM
CC50 [5, 32]: > 100 µM
TGI [6]: 20.0 µM
GI50 ([6]; Homo sapiens): 3.94 µM
CC50 [6, 32]: 74.1 µM
TGI ([7]; ADR-RES): 48.3 µM
GI50 ([7]; Homo sapiens, NCI/ADR-RES): 1.11 µM
CC50 ([7]; Homo sapiens, NCI/ADR-RES, read-out: LC50 (the source's name)): > 100 µM
GI50 ([8]; Homo sapiens): 1.04 µM
CC50 [8, 32]: > 100 µM
TGI [8]: 18.4 µM
TGI [9]: >100 µM
GI50 ([9]; Homo sapiens): 0.95 µM
CC50 [9, 32]: > 100 µM
GI50 ([10]; Homo sapiens): 2.35 µM
CC50 [10, 32]: > 100 µM
TGI [10]: 25.4 µM
GI50 ([11]; Homo sapiens): 2.17 µM
CC50 [11, 32]: 46 µM
TGI [11]: 15.3 µM
GI50 ([12]; Homo sapiens): 1.77 µM
CC50 [12, 32]: 48.3 µM
TGI [12]: 9.11 µM
GI50 ([13]; Homo sapiens): 3.65 µM
CC50 [13, 32]: > 100 µM
TGI [13]: 20.3 µM
GI50 ([14]; Homo sapiens): 0.91 µM
CC50 [14, 32]: 46.3 µM
TGI [14]: 15.4 µM
TGI [15]: 54.7 µM
GI50 ([15]; Homo sapiens): 12.8 µM
LC50 (50% lethal concentration) ([15]; Homo sapiens): > 100 µM
TGI [16]: 34.9 µM
GI50 ([16]; Homo sapiens): 1.77 µM
CC50 [16, 32]: > 100 µM
TGI [17]: 6.93 µM
GI50 ([17]; Homo sapiens, T47D): 2.13 µM
CC50 ([17]; Homo sapiens, T47D, read-out: LC50 (the source's name)): > 100 µM
GI50 ([18]; Homo sapiens, Malme-3M): 7.25 µM
CC50 ([18]; Homo sapiens, Malme-3M, read-out: LC50 (the source's name)): > 100 µM
TGI ([18]; MALME-3M): 30.6 µM
TGI [19]: 20.5 µM
GI50 ([19]; Homo sapiens): 4.41 µM
LC50 (50% net cell kill) ([19]; Homo sapiens): > 100 µM
TGI [20]: 19.0 µM
GI50 ([20]; Homo sapiens): 5.16 µM
CC50 [20, 32]: 53.4 µM
GI50 ([21]; Homo sapiens): 1.07 µM
CC50 [21, 32]: 6.04 µM
TGI [21]: 2.54 µM
TGI [22]: 6.04 µM
GI50 ([22]; Homo sapiens): 2.59 µM
CC50 [22, 32]: > 100 µM
GI50 ([23]; Homo sapiens): 3.31 µM
CC50 [23, 32]: 66.4 µM
TGI [23]: 20.7 µM
TGI [24]: >100 µM
GI50 ([24]; Homo sapiens): 4.57 µM
CC50 [24, 32]: > 100 µM
GI50 ([25]; Homo sapiens): 0.36 µM
CC50 [25, 32]: > 100 µM
TGI [25]: 21.6 µM
TGI [26]: 23.5 µM
GI50 ([26]; Homo sapiens): 9.07 µM
CC50 [26, 32]: 55.2 µM
TGI [27]: 23.0 µM
GI50 ([27]; Homo sapiens): 9.72 µM
CC50 [27, 32]: 53.5 µM
GI50 ([28]; Homo sapiens): 2.18 µM
LC50 ([28]; Homo sapiens): 31 µM
TGI [28]: 6.57 µM
GI50 ([29]; Homo sapiens): 8.91 µM
CC50 [29, 32]: > 100 µM
TGI [29]: 57.0 µM
GI50 ([30]; Homo sapiens, K562): 2.35 µM
CC50 ([30]; Homo sapiens, K562, read-out: LC50 (the source's name)): > 100 µM
TGI [30]: >100 µM
TGI [31]: 19.3 µM
GI50 ([31]; Homo sapiens): 3.82 µM
CC50 [31, 32]: 58.5 µM
